{"source": "paper PMC3102601", "about": "(2011)", "target": "phosphonoacetate hydrolase (PAc hydrolase) (Pseudomonas fluorescens, UniProt Q51782)", "sequence (Q51782 2-407)": "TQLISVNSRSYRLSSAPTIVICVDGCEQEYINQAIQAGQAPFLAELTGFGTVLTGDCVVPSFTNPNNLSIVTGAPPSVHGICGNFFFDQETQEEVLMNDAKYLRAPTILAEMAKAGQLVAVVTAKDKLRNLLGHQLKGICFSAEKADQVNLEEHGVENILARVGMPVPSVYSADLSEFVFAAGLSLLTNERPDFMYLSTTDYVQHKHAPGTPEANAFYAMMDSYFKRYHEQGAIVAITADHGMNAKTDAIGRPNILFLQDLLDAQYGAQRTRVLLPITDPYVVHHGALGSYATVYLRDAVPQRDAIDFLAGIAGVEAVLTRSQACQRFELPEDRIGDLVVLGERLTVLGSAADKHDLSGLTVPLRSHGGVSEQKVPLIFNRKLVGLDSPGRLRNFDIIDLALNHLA", "assay_type": "biochemical"}
{"smiles": "O=C(O)C(=O)CP(=O)(O)O", "note": "[phosphonopyruvate]", "values": [{"measurement": "Ki", "value": "1200 ± 800", "unit": "µM"}]}
